Source: patent US9149038B2, “4-amino-6-(heterocyclic)picolinates and 6-amino-2-(heterocyclic)pyrimidine-4-carboxylates and their use as herbicides” (Dow AgroSciences LLC, priority 2013, dated 2015)
Read-outs that look alike come from different tables or passages of the source.

Assays:
[1] = system: Key Broadleaf Weed and Crop Species; experiment: Post-Emergent Test II: postemergent herbicidal activity, visual rating after 14 d (Table 7); type: in vivo; settings: post-emergence, 336 h; for pest or weed control at 35 g/ha: 35 g ai/ha; for pest or weed control at 70 g/ha: 70 g ai/ha; for pest or weed control at 140 g/ha: 140 g ai/ha
How it was run: (§1)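 Post-emergence foliar spray, 187 L/ha, first/second true leaf stage plants in potting mix (pH 6.0-6.8). Rates: top rate and 2-fold serial dilutions to 1/16×. Solvent-blank controls. Readout: visual % kill at 14 d.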

[2] = system: Key Grass and Sedge Weeds as well as Grass Crops; experiment: Post-Emergent Test II: postemergent herbicidal activity, visual rating after 14 d (Table 8); type: in vivo; settings: post-emergence, 336 h; for pest or weed control at 35 g/ha: 35 g ai/ha; for pest or weed control at 70 g/ha: 70 g ai/ha; for pest or weed control at 140 g/ha: 140 g ai/ha
How it was run: as §1

[3] = ABUTH: velvetleaf (Abutilon theophrasti), read-out: Visual Growth Reduction (%) 14 Days After Application ABUTH
[4] = AMARE: redroot pigweed (Amaranthus retroflexus), read-out: Visual Growth Reduction (%) 14 Days After Application AMARE
[5] = BRSNN: oilseed rape, canola (Brassica napus), read-out: Visual Growth Reduction (%) 14 Days After Application BRSNN
[6] = CHEAL: lambsquarters (Chenopodium album), read-out: Visual Growth Reduction (%) 14 Days After Application CHEAL
[7] = EPHHL: wild poinsettia (Euphorbia heterophylla), read-out: Visual Growth Reduction (%) 14 Days After Application EPHHL
[8] = HELAN: sunflower (Helianthus annuus), read-out: Visual Growth Reduction (%) 14 Days After Application HELAN
[9] = barnyardgrass (Echinochloa crus-galli), read-out: Visual Growth Reduction (%) 14 Days After Application, ECHCG
[10] = giant foxtail (Setaria faberi), read-out: Visual Growth Reduction (%) 14 Days After Application, SETFA
[11] = maize, corn (Zea mays), read-out: Visual Growth Reduction (%) 14 Days After Application, ZEAMX
[12] = rice (Oryza sativa), read-out: Visual Growth Reduction (%) 14 Days After Application, ORYSA
[13] = wheat, spring (Triticum aestivum), read-out: Visual Growth Reduction (%) 14 Days After Application, TRZAS
[14] = yellow nutsedge (Cyperus esculentus), read-out: Visual Growth Reduction (%) 14 Days After Application, CYPES

COC(=O)c1nc(-c2cccc3c2OC(F)(F)O3)nc(N)c1OC [Compound 99]
60 to 74%: pest or weed control at 35 g/ha [1, 6]
75 to 84%: pest or weed control at 70 g/ha [1, 6] | pest or weed control at 35 g/ha [1, 8]
0 to 29%: pest or weed control at 35 g/ha [1, 3] | pest or weed control at 70 g/ha [1, 3] | pest or weed control at 140 g/ha [1, 3] | pest or weed control at 35 g/ha [1, 4] | pest or weed control at 70 g/ha [1, 4] | pest or weed control at 140 g/ha [1, 4] | pest or weed control at 35 g/ha [1, 5] | pest or weed control at 70 g/ha [1, 5] | pest or weed control at 140 g/ha [1, 5] | pest or weed control at 35 g/ha [1, 7] | pest or weed control at 70 g/ha [1, 7] | pest or weed control at 140 g/ha [1, 7] | pest or weed control at 35 g/ha [2, 9] | pest or weed control at 70 g/ha [2, 9] | pest or weed control at 140 g/ha [2, 9] | pest or weed control at 35 g/ha [2, 10] | pest or weed control at 70 g/ha [2, 10] | pest or weed control at 140 g/ha [2, 10] | pest or weed control at 35 g/ha [2, 11] | pest or weed control at 70 g/ha [2, 11] | pest or weed control at 140 g/ha [2, 11] | pest or weed control at 35 g/ha [2, 12] | pest or weed control at 70 g/ha [2, 12] | pest or weed control at 140 g/ha [2, 12] | pest or weed control at 35 g/ha [2, 13] | pest or weed control at 70 g/ha [2, 13] | pest or weed control at 140 g/ha [2, 13] | pest or weed control at 35 g/ha [2, 14] | pest or weed control at 70 g/ha [2, 14] | pest or weed control at 140 g/ha [2, 14]
85 to 94%: pest or weed control at 140 g/ha [1, 6] | pest or weed control at 70 g/ha [1, 8] | pest or weed control at 140 g/ha [1, 8]
